The target in one assay is human cyclin B-CDK1 (Homo sapiens, UniProt P06493). Description: FlashPlate kinase assay, cyclin B-CDK1. In kind it is biochemical. The conditions noted are these: Rb protein substrate, 1 μM ATP, 33P-ATP, 30 minutes room temperature.
The subject of assay [1] is HCT116, a colorectal carcinoma cell line. Description: Tetrazolium dye (MTT) proliferation assay. Format: cell-based. The conditions noted are these: Homo sapiens, HCT-116; HCT116 cells, inhibition of cell proliferation. On the procedure:
Proliferation was evaluated by the tetrazolium dye assay according to the procedure of Denizot and Lang (Denizot, F. and Lang, R. J Immunol Methods 1986, 89, 271–277). The cell line used was HCT116, a colorectal carcinoma cell line obtained from the American Type Cell Culture Collection (ATCC; Rockville, Md.). The cells were grown in McCoy's 5A medium supplemented with 10% FCS and L-glutamine.
Cells were plated at the appropriate seeding density to give logarithmic growth over the course of the assay in a 96-well tissue culture plate. Plates were incubated overnight at 37° C. in a humidified incubator with 5% CO2. The next day, test compounds were serially diluted to four times the final concentration in the appropriate medium containing 1.2% DMSO. One-fourth final volume of each dilution was added in duplicate to the plates containing cells. The same volume of 1.2% DMSO in medium was added to a row of “control wells” such that the final concentration of DMSO in each well was 0.3%. Wells to which no cells were added served as the “blank.” Wells to which no inhibitor was added served as “no inhibitor control.” The plates were) returned to the incubator, and at set time points (determined by their growth curves) plates were analyzed as described below.
3-(4,5-dimethylthiazole-2-yl)-2,5-diphenyl-2H-tetrazolium bromide (thiazolyl blue; MTT; Sigma) was added to each well to yield a final concentration of 1 mg/ml. Plates were returned to the incubator for 2.5–3 hours at 37° C. The MTT-containing medium was removed and the resulting formazan metabolite was solubilized in 100% ethanol with shaking for 15 minutes at room temperature. Absorbance readings were taken in a microtiter plate reader (Dynatech and Molecular Devices plate readers were used interchangeably) at a wavelength of 570 nm with a 650 nm reference. Percent inhibition (% INH) is calculated by subtracting the absorbance of the blank well from all wells, then subtracting the ratio of the average absorbance of each test duplicate (SAVE) by the average of the controls (CAVE) from 1.00. The final number is then multiplied by 100 (% INH=(1.00−SAVE/CAVE)×100). The concentration at which 50% inhibition of cell proliferation is obtained (the IC50) is determined from the linear regression of a plot of the logarithm of the concentration versus percent inhibition.

For a further assay, the target named is human cyclin E-CDK2 (Homo sapiens, UniProt P24941). As to the kind of experiment: FlashPlate kinase assay, cyclin E-CDK2. In kind it is biochemical. The conditions noted are these: Rb protein substrate, 1 μM ATP, 33P-ATP, 30 minutes room temperature.
In a further assay the target is human cyclin D1-CDK4 (Homo sapiens, UniProt P11802). Description: FlashPlate kinase assay, cyclin D1-CDK4. Format: biochemical. The conditions noted are these: Rb protein substrate, 1 μM ATP, 33P-ATP, 30 minutes room temperature; read-out: CDK4 IC50.

Molecules are shown by their SMILES.

human cyclin B-CDK1, sequence (P06493 whole entry): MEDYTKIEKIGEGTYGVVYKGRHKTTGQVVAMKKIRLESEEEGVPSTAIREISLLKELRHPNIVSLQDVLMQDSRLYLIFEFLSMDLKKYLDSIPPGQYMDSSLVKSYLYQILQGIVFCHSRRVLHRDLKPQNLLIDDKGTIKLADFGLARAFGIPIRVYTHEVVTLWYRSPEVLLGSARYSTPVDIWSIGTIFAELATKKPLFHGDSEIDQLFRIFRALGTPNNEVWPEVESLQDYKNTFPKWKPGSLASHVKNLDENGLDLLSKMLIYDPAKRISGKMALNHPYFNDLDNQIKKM
human cyclin B-CDK1, sequence (P14635 whole entry partner): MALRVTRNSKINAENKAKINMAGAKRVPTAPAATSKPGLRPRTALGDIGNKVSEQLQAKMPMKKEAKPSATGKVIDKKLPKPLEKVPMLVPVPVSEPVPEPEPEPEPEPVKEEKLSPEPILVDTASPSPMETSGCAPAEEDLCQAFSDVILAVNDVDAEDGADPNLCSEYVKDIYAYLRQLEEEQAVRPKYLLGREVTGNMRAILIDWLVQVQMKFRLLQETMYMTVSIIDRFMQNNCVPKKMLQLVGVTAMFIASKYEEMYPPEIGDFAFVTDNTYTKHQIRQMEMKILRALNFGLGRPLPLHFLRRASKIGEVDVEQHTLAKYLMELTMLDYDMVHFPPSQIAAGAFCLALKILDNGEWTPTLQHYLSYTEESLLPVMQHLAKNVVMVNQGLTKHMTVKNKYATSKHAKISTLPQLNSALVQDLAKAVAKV
human cyclin D1-CDK4, sequence (P11802 whole entry): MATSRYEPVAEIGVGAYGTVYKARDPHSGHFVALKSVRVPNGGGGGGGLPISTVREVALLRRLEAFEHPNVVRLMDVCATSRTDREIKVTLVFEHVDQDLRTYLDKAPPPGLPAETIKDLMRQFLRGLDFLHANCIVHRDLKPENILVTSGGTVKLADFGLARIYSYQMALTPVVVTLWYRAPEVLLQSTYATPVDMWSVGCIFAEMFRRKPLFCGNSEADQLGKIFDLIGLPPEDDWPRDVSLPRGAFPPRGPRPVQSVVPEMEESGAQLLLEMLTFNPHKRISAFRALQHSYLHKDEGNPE
human cyclin D1-CDK4, sequence (P24385 whole entry partner): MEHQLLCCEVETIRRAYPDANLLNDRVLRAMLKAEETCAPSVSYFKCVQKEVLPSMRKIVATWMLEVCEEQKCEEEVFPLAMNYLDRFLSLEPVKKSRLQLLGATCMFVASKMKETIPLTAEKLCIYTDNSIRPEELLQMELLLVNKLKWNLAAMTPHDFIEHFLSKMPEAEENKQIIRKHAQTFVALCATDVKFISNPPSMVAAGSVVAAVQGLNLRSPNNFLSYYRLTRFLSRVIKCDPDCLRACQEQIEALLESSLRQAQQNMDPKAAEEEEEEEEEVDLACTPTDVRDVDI

The term IC50 denotes the concentration at which inhibition is half-maximal. Consider `CCc1cccc(C(=O)c2sc(Nc3ccc(N4CCC(N5CCOCC5)CC4)cc3)nc2N)c1` [Example 116, {4-Amino-2-[4-(4-morpholin-4-yl-piperidin-1-yl)-phenylamino]-thiazol-5-yl}-(3-ethyl-phenyl)-methanone], for which the IC50 on human cyclin B-CDK1 was 5.59 µM; in assay [1], 2.55 µM; against human cyclin E-CDK2, 0.75 µM; at human cyclin D1-CDK4 it was 0.015 µM.
Taken in the same sequence, the figures for `CCc1cccc(C(=O)c2sc(Nc3ccc(N4CCC(N5CCCCC5)CC4)cc3)nc2N)c1` [Example 117, [4-Amino-2-(4-[1,4′]bipiperidinyl-1′-yl-phenylamino)-thiazol-5-yl]-(3-ethyl-phenyl)-methanone] were 3.22 µM, 1.31 µM, 0.989 µM and 0.009 µM.
Taken in the same sequence, the figures for `CCOc1cccc(C(=O)c2sc(Nc3ccc(N4CCC(N5CCCC5)CC4)cc3)nc2N)c1` [Example 118, {4-Amino-2-[4-(4-pyrrolidin-1-yl-piperidin-1-yl)-phenylamino]-thiazol-5-yl}-(3-ethoxy-phenyl)-methanone] were 1.53 µM, 4.15 µM, 3.24 µM and 0.031 µM.
For `Nc1nc(Nc2ccc(N3CCC(N4CCCC4)CC3)cc2)sc1C(=O)c1cccc(C2CC2)c1` [Example 119, {4-Amino-2-[4-(4-pyrrolidin-1-yl-piperidin-1-yl)-phenylamino]-thiazol-5-yl}-(3-cyclopropyl-phenyl)-methanone], the half-inhibitory concentration (IC50) against human cyclin B-CDK1 came to 1.53 µM; in assay [1], 3.17 µM; on human cyclin E-CDK2, 3.24 µM; on human cyclin D1-CDK4, 0.011 µM.
Taken in the same sequence, the figures for `CN(C)C1CCN(c2ccc(Nc3nc(N)c(C(=O)c4cccc(C5CC5)c4)s3)cc2)CC1` [Example 120, {4-Amino-2-[4-(4-dimethylamino-piperidin-1-yl)-phenylamino]-thiazol-5-yl}-(3-cyclopropyl-phenyl)-methanone] were 1.87 µM, 3.91 µM, 2.58 µM and 0.023 µM.
Taken in the same sequence, the figures for `Cc1ccc(C(=O)c2sc(Nc3ccc(N4CCC(N5CCCC5)CC4)cc3)nc2N)cc1F` [Example 121, {4-Amino-2-[4-(4-pyrrolidin-1-yl-piperidin-1-yl)-phenylamino]-thiazol-5-yl}-(3-fluoro-4-methyl-phenyl)-methanone] were 0.7 µM, 2.16 µM, 1.94 µM and 0.011 µM.
Consider `CCc1cc(C(=O)c2sc(Nc3ccc(N4CCC(N5CCCC5)CC4)cc3)nc2N)ccc1F` [Example 122, {4-Amino-2-[4-(4-pyrrolidin-1-yl-piperidin-1-yl)-phenylamino]-thiazol-5-yl}-(3-ethyl-4-fluoro-phenyl)-methanone], for which the concentration for half-maximal inhibition (IC50) came out at 5.19 µM at human cyclin B-CDK1, 4.22 µM in assay [1], 5.31 µM against human cyclin E-CDK2 and 0.02 µM at human cyclin D1-CDK4.
Taken in the same sequence, the figures for `CCCc1cc(C(=O)c2sc(Nc3ccc(N4CCC(N5CCCC5)CC4)cc3)nc2N)ccc1O` [Example 123, {4-Amino-2-[4-(4-pyrrolidin-1-yl-piperidin-1-yl)-phenylamino]-thiazol-5-yl}-(4-hydroxy-3-propyl-phenyl)-methanone] were 0.345 µM, 1.05 µM, 0.2 µM and 0.014 µM.
Taken in the same sequence, the figures for `CCNC1CCN(c2ccc(Nc3nc(N)c(C(=O)c4cccc(F)c4)s3)cc2)C1` (stereo not drawn) [Example 132, {4-Amino-2-[4-(3-ethylamino-pyrrolidin-1-yl)-phenylamino]-thiazol-5-yl}-(3-fluoro-phenyl)-methanone] were 0.253 µM, 0.568 µM, 0.701 µM and 0.029 µM.

The record behind these values is patent US7211576B2, “Diaminothiazoles” (Hoffmann-La Roche Inc., priority 2004, dated 2007).
